Experimental data published in patent US10857201B2, “NNIF and nNIF-related peptides and related methods” (UNIVERSITY OF UTAH RESEARCH FOUNDATION, priority 2016, dated 2020).

Tests used:
[1] = system: LPS-induced peritoneal NET formation; test: Mouse model of LPS-induced peritonitis (in vivo NET formation); conditions: C57BL/6 mice, i.p. LPS
Method: (§1) C57/BL6 or Swiss-Webster mice were pretreated in blinded fashion with CRISPP (10 mg/kg), nNIF (10 mg/kg), or CRISPP-SCR (10 mg/kg) by i.p. injection 1 hour prior to infection (E. coli, 4.5×10^7 cfu/mouse, i.p.) or inoculation (LPS, 25 mg/kg, i.p.) (SIGMA-ALDRICH®). Control mice were injected with saline alone. The mice were sacrificed in a CO2 chamber 3 hours post-infection/inoculation, and the peritoneal fluid and membrane samples were harvested. Briefly, the abdomen was disinfected and opened in the midline without injuring the muscle. The peritoneal cavity was lavaged with sterile saline solution (1 mL) and analyzed for in vivo NET formation, bacteriology, and leukocyte accumulation. NETs in the peritoneal fluid were qualitatively and quantitatively analyzed using live cell imaging with confocal microscopy and NET-associated histone H3 release assays. NETs on the serosal surface of the peritoneal membrane were assessed quantitatively using live cell imaging, followed by standardized grid analysis of five randomly selected high-power visual fields per tissue sample (IMAGEJ™ software, NIH). Peritoneal bacterial colony forming unit (cfu) counts were quantified by permeabilizing all recovered leukocytes with 0.1% Triton X-100 for 10 minutes and performing serial dilutions and bacterial cultures on 5% sheep blood agar plates (HARDY DIAGNOSTICS™). After a 24-hour incubation, bacterial counts were determined. Total leukocyte counts in the peritoneal lavage were determined in Neubauer chambers using an optical microscope after dilution in Turk's solution (2% acetic acid). Differential leukocyte analysis was performed using a 60× oil immersion objective to assess morphology of cyto-centrifuged cells stained with May-Gruenwald-Giemsa dye. All mice were included in the final analysis.

[2] = system: NET formation in E. coli peritonitis; test: Mouse model of E. coli peritonitis (in vivo NET formation); conditions: C57BL/6 mice, 10 mg/kg i.p. 1 hour before E. coli i.p., 3 hours
Excerpt: FIG. 8A depicts results of peritoneal fluid NET formation (red fluorescence, yellow arrow) assessed by live cell imaging (60× magnification, scale bar=50 μm) and histone H3 release (red dashed line=baseline arbitrarily set at 1). Three mice per group. One way ANOVA with Tukey's post hoc testing, ***P<0.001 for CRISPP and nNIF versus CRISPP-SCR.
FIG. 8B depicts results of NET formation on the surfaces of peritoneal membranes (red fluorescence, yellow arrows) that was quantified by counting the number of NETs that crossed standardized grid lines in […] (60× magnification; scale bar=50 μm) using IMAGEJ™ software. A second experiment yielded a similar pattern. FIGS. 8A and 8B depict C57BL/6 mice that were not pretreated or pretreated with nNIF, CRISPP, or CRISPP-SCR (10 mg/kg i.p.; 1 hour) and were inoculated with E. coli (4.5×10^7 bacteria i.p.). After 3 hours, the animals were sacrificed, and peritoneal fluid (FIG. 8A) and membranes (FIG. 8B) were collected for analysis.
FIG. 8C depicts C57BL/6 mice that were not pretreated (left two bars) or that were pretreated with CRISPP, nNIF, or CRISPP-SCR, and that were inoculated with E. coli i.p. as in FIGS. 8A and 8B. Neutrophil numbers in peritoneal fluid were counted after 3 hours (3-5 mice/group). […]
FIG. 8E depicts peritoneal fluid NET formation, imaged and measured as in FIG. 8A (10 mice/group). *P<0.05 for CRISPP/E. coli and nNIF/E. coli compared to CRISPP-SCR/E. coli and E. coli.
FIG. 8F depicts NET formation on peritoneal membrane surfaces, imaged and quantitated as in FIG. 8B (3 mice in each group). *P<0.05 for E. coli versus control (red dashed line); **P<0.01 for CRISPP-SCR/E. coli versus control; †P<0.05 for CRISPP/E. coli and nNIF/E. coli versus CRISPP-SCR/E. coli. One way ANOVA with Tukey's post-hoc testing applied in FIGS. 8E and 8F. In FIGS. 8E and 8F, Swiss-Webster mice that were not pretreated or that were pretreated with nNIF, CRISPP, or CRISPP-SCR were inoculated with E. coli i.p. as in FIGS. 8A and 8B. After 3 hours, peritoneal fluid and membranes were collected. FIGS. 8A-8F indicate that nNIF and CRISPP inhibit in vivo NET formation.
as §1

[3] = system: neutrophil extracellular trap (NET) formation; test: In vitro NET formation by stimulated human PMNs (live cell imaging, NET-associated histone H3 release); format: cell-based
Method: Qualitative assessment of NET formation was performed as previously reported (see Yost C C, et al., Blood. 2009; 113 (25):6419-27 and McInturff A M, et al., Blood. 2012; 120 (15):3118-25). Briefly, primary PMNs isolated from preterm infants, healthy term infants, and healthy adults (2×10^6 cells/mL) were incubated with control buffer or stimulated with indicated agonists or bacteria for 1 hour at 37° C. in 5% CO2/95% air on glass coverslips coated with poly-L-lysine. For selected experiments, primary PMNs were pre-incubated with autologous plasma, cord blood plasma, nNIF (0.2-70 nM), CRISPP (0.2-70 nM), nNIF-SCR (1 nM), or CRISPP-SCR (1 nM) for one hour prior to stimulation. After pre-incubation and/or stimulation, PMNs were gently washed with PBS and incubated with a mixture of cell permeable (SYTO® Green, MOLECULAR PROBES®) and impermeable (SYTOX® Orange, MOLECULAR PROBES®) DNA fluorescent dyes. Confocal microscopy was accomplished using a FV1000 IX81 confocal microscope and FLUOVIEW™ software (OLYMPUS™). Both 20× and 60× objectives were used. Z-series images were obtained at a step size of 1 μm over a range of 20 μm for each field. FLUOVIEW™ and ADOBE™ PHOTOSHOP™ CS2 software was used for image processing.
Using BSL 2 safety protocols, primary PMNs isolated from healthy adults (2×10^6 cells/mL) were incubated with mock infection buffer or live dengue virus (M010.05) as for live cell imaging. After a 1-hour incubation, the infected PMNs were fixed with 2% p-FA for 10 minutes prior to incubation with fluorescently-labeled, cell-permeable and cell-impermeable DNA dyes, and imaged as for live cell imaging using confocal microscopy.
NET-associated histone H3 content was determined as previously described (see McInturff A M, et al., Blood. 2012; 120 (15):3118-25). After live cell imaging of control and stimulated primary PMNs (2×10^6/mL; various agonists), the cells were incubated with PBS containing DNase (40 U/mL) for 15 minutes at room temperature to break down and release NETs formed in response to stimulation. The supernatant was gently removed and centrifuged at 420×g for 5 minutes. The cell-free supernatant was then mixed 3:1 with 4× Laemmli buffer prior to western blotting. A polyclonal primary antibody against human histone H3 protein (CELL SIGNALING®) and infrared-conjugated secondary antibodies (LI-COR®) were used. Imaging and densitometry were performed on the ODYSSEY® infrared imaging system)(LI-COR®). This assay was previously validated as a surrogate for NET formation under in vitro conditions (see McInturff A M, et al., Blood. 2012; 120 (15):3118-25) as employed in the present studies.
Without being bound by any specific theory, it was hypothesized that placentally expressed HTRA1, a serine protease, regulates the formation of NET-inhibitory peptides through cleavage of AAT. To test this hypothesis, term and preterm placenta were assessed for HTRA1 expression via western blotting. HTRA1 and AAT plasma expression from term and preterm infants and adults were determined by ELISA. Bioactive (0.5 μg) or placental eluted HTRA1 was incubated with AAT (8 μM) for 18 hours at 37° C. Carboxy-terminus fragments of AAT were detected using western blotting and mass spectrometry. The reaction products were incubated for 1 hour with PMNs isolated from healthy adults prior to LPS stimulation (100 ng/mL) and assessed for NET formation using live cell imaging. Reactive oxygen species were assessed using flow cytometry, chemotaxis using a modified Boyden chamber assay, and bacterial killing using E. coli.

[4] = system: C57BL/6 mice challenged with LPS; test: Mouse model of systemic inflammation induced by LPS (endotoxemia), survival; format: in vivo; conditions: i.p. LPS, first experiment, n=6 per group
Method: Animals with no treatments or given LPS alone were studied in parallel (n≥10 mice for each condition). **P<0.01, log-rank (Mantel-Cox) statistical tool used. The survival difference between nNIF-LPS and CRISPP-LPS compared to CRISPP-SCR-LPS trended toward significance (§ P=0.051).
Control mice were i.p. injected with saline alone. Fluid resuscitation and antibiotic treatment were not used in these experiments. Survival was assessed over 50 or 72 hour intervals. All mice were included in the final survival analysis.

## V_MDITPMQVGPLKMKPKVIFNPFKLFENF [CRISPP-SCR, scrambled control peptide of CRISPP, reference compound]
[1]
  LPS-induced peritoneal NET formation: not
[2]
  NET formation by peritoneal fluid PMNs: not
  deployment of NETs on the peritoneal surface: not
[3]; PMA 20 nM, peptides 1 nM, 1 hour preincubation
  PMA-stimulated NET deployment: not
[3]; adult PMNs preincubated with agent, LPS 100 ng/mL, 1 hour
  NET formation triggered by LPS: does not
[4]
  animals alive at 50 hours: 30%
